Measured values reported in patent US12312379B2, “Methods for producing cyclic compounds comprising N-substituted amino acid residues” (Chugai Seiyaku Kabushiki Kaisha, priority 2021, dated 2025).
≈ marks a conversion by molar mass, not a printed value. Like-named read-outs stand apart in the source and are kept apart here.

Columns and labels:
[1] = Merck Index 14th Edition; Org. Process Res. Dev. 2007 for 2-MeTHF; cited from earlier work
[2] = cited from earlier work
[3] = water/octanol; literature or database values; cited from earlier work
[4] = Water content by Karl Fischer titration (CA-200); type: physicochemical; conditions: wet crystals
Description: The conditions for analyzing the water content by Karl Fischer titration method are shown below. • Instrument: CA-200 (manufactured by Nittoseiko Analytech Co., Ltd.) • Anolyte: Aquamicron AKX • Catholyte: Aquamicron CXU

Amount of acetone by GC = type: physicochemical; conditions: wet crystals
Protocol: The conditions for analyzing the amount of acetone by GC are shown below. • Instrument: GC-2010 (manufactured by SHIMADZU CORPORATION) • Column: DB-624 (Agilent), 0.530 mm ID×30 m, 3.00 μm • Column temperature: 50° C. (5 min)→10° C./min→90° C. (0 min)→50° C./min→240° C. (5 min) • Injector temperature: 230° C. • Detector temperature: 250° C. • Split ratio: 20/1 • Flow rate: 30 cm/sec

[5] = Water content by Karl Fischer titration (CA-310); type: physicochemical; conditions: after acclimatization of the sample to laboratory environment
Protocol: The water content of the hydrate crystals (Form C) of Compound 1 prepared in Example 26 was measured by Karl Fischer titration method. After acclimatization of the sample to laboratory environment, the measurement was carried out using CA-310 (manufactured by Nittoseiko Analytech).

[6] = Dynamic water vapor adsorption (DVS Intrinsic); type: physicochemical; conditions: 25° C., relative humidity range of 0% to 95%, relative to the weight when the relative humidity is 0%
Protocol: The dynamic water vapor adsorption properties of the hydrate crystals (Form C) of Compound 1 prepared in Example 26 were measured by the following method. The results are shown in FIG. 10. • Measurement apparatus: DVS Intrinsic (manufactured by Surface Measurement Systems) • Temperature: 25° C. • Relative humidity (%) measurement points: • Cycle 1: 0, 10, 20, 30, 40, 50, 60, 70, 80, 90, 95, 90, 80, 70, 60, 50, 40, 30, 20, 10, 0(%); • Cycle 2: 10, 20, 30, 40, 50, 60, 70, 80, 90, 95, 90, 80, 70, 60, 50, 40, 30, 20, 10, 0(%) • Threshold: 0.001 dm/dt (%/min) • Minimum adsorption time: 10 min • Maximum adsorption time: 1440 min

[7] = Powder X-ray diffraction at different humidities; type: physicochemical; conditions: 35.0 °C, relative humidity of 75% to 0%, versus Form C obtained in Example 25
Protocol: Powder X-ray diffraction of the hydrate crystals (Form C) of Compound 1 prepared in Example 26 was measured at different humidities by the following method. Measurement apparatus: SmartLab System, D/Tex Ultra detector, humidity generator HUM-SL (manufactured by Rigaku Corporation) • Anticathode: Cu • Tube voltage: 45 kV • Tube current: 200 mA • Scanning range: 5-30° • Scanning speed: 0.7°/min • Sampling width: 0.02° • Varying humidity conditions: […]

[8] = Org. Process Res. Dev. 2007 / J. Mol. Catal. A Chem. 2010

Compound	miscibility / solubility in water (in words) [1]	log Kow values or predicted log Kow values [3]	amount that dissolves in 1 L of water ([2]; Merck Index 14th Edition) [g]	other results
CC1CCCO1 (stereo not drawn) [Compound 2-MeTHF, 2-methyltetrahydrofuran]	not miscible with water	1.35	–	amount that dissolves in 1 L of water [2, 8]: 140 g; water solubility ([2]; room temperature (e.g. 25° C.)): 150 mg/mL (≈ 1740 mM)
C[S+](C)[O-] [DMSO, dimethyl sulfoxide]	soluble in water	−0.31	–	water solubility ([2]; ChemIDplus Advanced (NIH)): 1000 mg/mL (≈ 12800 mM)
CC#N [acetonitrile]	miscible with water	−0.34	–	–
COc1ccccc1 [anisole]	–	2.11	–	–
COC(=O)OC [dimethyl carbonate]	–	0.23	139	amount that dissolves in 1 L of water [2, 8]: 139 g
CCOC(C)=O [ethyl acetate]	–	0.73	100	–
CCCCCCC [heptane]	insoluble in water	4.66	–	–
CC(=O)OC(C)C [isopropyl acetate]	–	1.02	43	–
(5S,8S,11S,15S,18S,23aS,29S,35S,37aS)-8-((S)-sec-butyl)-18-cyclopentyl-29-(3,5-difluoro-4-(trifluoromethyl)phenethyl)-36-ethyl-11-isobutyl-N,N,5,6,12,16,19,33-octamethyl-35-(4-methylbenzyl)-4,7,10,13,17,20,23,28,31,34,37-undecaoxotetratriacontahydro-2H,4H-spiro[azeto[2,1-u]pyrrolo[2,1-i][1,4,7,10,13,16,19,22,25,28,31]undecaazacyclotetratriacontin-21,1′-cyclopentane]-15-carboxamide	–	–	–	water content [4]: 17.5%; acetone content (Amount of acetone by GC): 3.7%
(5S,8S,11S,15S,18S,23aS,29S,35S,37aS)-8-((S)-sec-butyl)-18-cyclopentyl-29-(3,5-difluoro-4-(trifluoromethyl)phenethyl)-36-ethyl-11-isobutyl-N,N,5,6,12,16,19,33-octamethyl-35-(4-methylbenzyl)-4,7,10,13,17,20,23,28,31,34,37-undecaoxotetratriacontahydro-2H,4H-spiro[azeto[2,1-u]pyrrolo[2,1-i][1,4,7,10,13,16,19,22,25,28,31]undecaazacyclotetratriacontin-21,1′-cyclopentane]-15-carboxamide [hydrate crystals (Form C) of Compound 1]	–	–	–	water content [5]: 6.50 wt %; weight change as the hydration number changes [6]: ≤ 3.3 % weight; shift in 2θ values [7]: ≤ 0.2 °
